From publication PMC8998611, “Identification of Novel GSK-3β Hits Using Competitive Biophysical Assays” (International Journal of Molecular Sciences, 2022)

How the values were obtained:
p70S6K = target: T1, p70S6K (Homo sapiens, UniProt P23443); test: Eurofins Kinase Diversity Panel, p70S6K; format: biochemical; conditions: 20 µM compound; ATP at Km ± 15 µM; read-out: inhibitory effect on p70S6K
T1 construct: purchased Eurofins (Kinase Diversity Panel service)
Experimental: To further characterize the inhibitory activity of the two selected fragments, the selectivity of G5 and G12 towards a panel of 58 kinases of the humane proteome was evaluated using the “Kinase screening and profiling” service of Eurofins, Luxembourg (Kinase Diversity Panel). […] Results are reported in Supplementary Figures S2 and S3.

GSK-3β [1] = target: T2, GSK-3β (Homo sapiens, UniProt P49841); test: MicroScale Thermophoresis (MST) binding to fluorescently labeled GSK-3β; set-up: made in house; host or cells: Sf9 cells; conditions: for MST binding check, displacement assay: preincubation with 3 mM AMP-PNP, data not shown
Experimental: MicroScale Thermophoresis (MST) experiments were conducted in triplicate on a Monolith NT.115 Pico system (NanoTemper Technologies, Munich, Germany).
The MST technique was used both for hit binding and for affinity (kd) determination.
GSK-3β was labeled with the His-tag RED-tris-NTA label 2nd generation (Nanotemper Technologies) following Nanotemper technology protocol. The 100 nM stock labeled protein solution was used at 20 nM concentration to roughly start from 7000 fluorescence counts in each screening experiment.
GSK-3β was labelled also using RED-NHS ammine dye (Nanotemper Technologies) following the manufacturer’s protocol. The obtained ammine-labeled protein was used at 20 nM concentration to roughly start the experiments from 6000 fluorescence counts.
Binding tests were performed on eight capillaries with a constant concentration of the labeled protein (20 nM), to detect the effect induced by the compounds on the fluorescence signal (in the presence or absence of 3 mM AMP-PNP). Protein in assay buffer in the presence of 5% DMSO was the negative control.
Assay buffer: Phosphate buffer 0.1 M pH 7.2, 5 mM MgCl2, 0.001% Tween80, 0.1% PEG8000. Experiments were performed in triplicates. Data elaboration and plots were performed using MO.Control Nanotemper software.

GSK-3β [2] = target: T2, GSK-3β; test: GSK-3β kinetics, Lineweaver-Burk analysis of competition with ATP or substrate ULight-GS; format: biochemical; set-up: made in house; host or cells: Sf9 cells; conditions: compound 20 and 50 μM; for mechanism of inhibition with respect to substrate ULight-GS: ATP 1 μM, ULight-GS 12.5-200 nM; for mechanism of inhibition with respect to ATP: ATP 0.25-4 μM, ULight-GS 50 nM
Experimental: First, under a constant concentration of the substrate ULight-GS (50 nM), ATP concentrations were varied from 0.25 to 4 μM, and G5 and G12 were tested at 20 and 50 μM. […] Additionally, G5 and G12 (at 20 and 50 μM) were tested by keeping the ATP concentration constant (1 μM) and varying the substrate ULight-GS concentration from 12.5 to 200 nM.
To study the GSK-3β kinetics, the reaction mixture, varying concentrations of ATP (0.25–0.5–1–2–4 μM) or substrate (12.5–25–50–100–200 nM) versus test samples (20 and 50 μM), were incubated for 5, 15, 30, and 60 min at 23 °C, followed by the addition of the 6 mM EDTA and the anti-phospho-GS antibody according to the manufacturer’s protocol.
For GSK-3β kinetic experiments, initial velocities (V0) were determined and fitted to the Michaelis–Menten equation. To directly visualize G5 and G12 inhibition mode, a Lineweaver–Burk plot was generated according to the values obtained from the Michaelis–Menten analysis. […] Graphs and data analysis were performed using GraphPad Prism 8 software.

GSK-3β [3] = target: T2, GSK-3β; test: Thermal shift assay with SYPRO Orange; format: binding; set-up: made in house; host or cells: Sf9 cells; conditions: GSK-3β 5 μM; normalized to DMSO effect
Experimental: Given the poor inhibitory activity of compounds B3 and E2, only G5 and G12 were selected for further biophysical and structural investigations. […] A Tm increase of 3.2 °C and 2.5 °C was observed upon binding of G5 and G12, respectively. Reported effects were compared and normalized to the effect induced by DMSO alone on GSK-3β denaturation. The same experiments were also performed in the presence of AMP-PNP to unravel a possible effect of this molecule on protein denaturation.
Thermal shift experiments were conducted in technical triplicates and recorded with a ViiA7^TM real-time PCR instrument. The analysis protocol of Partch and colleagues developed for fast stability screening of buffers and interactors for recombinant proteins was followed, [42]. Briefly, the recombinant protein GSK-3β at a final concentration of 5 μM was mixed with the dye SYPRO Orange (2× final concentrated) in the selected assay buffer (NaCl 300 mM, Hepes pH 7.5 20 mM, MgCl2 5 mM, DTT 1 mM) and incubated with hit compounds at two different concentrations, 200 and 500 μM. Experiments were also performed on GSK-3β also in the presence of AMP-PNP at a final concentration of 200 μM. […]
Output data were collected and analyzed with Excel software and Graphpad Prism 7.

T2 sequence (P49841 whole entry): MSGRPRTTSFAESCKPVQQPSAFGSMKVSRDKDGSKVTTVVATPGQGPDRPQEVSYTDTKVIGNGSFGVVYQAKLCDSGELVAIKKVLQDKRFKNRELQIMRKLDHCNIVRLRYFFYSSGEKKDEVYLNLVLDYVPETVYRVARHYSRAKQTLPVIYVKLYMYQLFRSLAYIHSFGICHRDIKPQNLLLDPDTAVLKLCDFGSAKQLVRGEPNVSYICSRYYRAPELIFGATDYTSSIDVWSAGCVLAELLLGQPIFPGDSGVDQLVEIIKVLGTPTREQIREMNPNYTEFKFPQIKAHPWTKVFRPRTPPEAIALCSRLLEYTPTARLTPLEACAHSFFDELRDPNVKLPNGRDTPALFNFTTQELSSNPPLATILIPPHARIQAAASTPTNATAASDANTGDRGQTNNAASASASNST
T1 sequence (P23443 whole entry): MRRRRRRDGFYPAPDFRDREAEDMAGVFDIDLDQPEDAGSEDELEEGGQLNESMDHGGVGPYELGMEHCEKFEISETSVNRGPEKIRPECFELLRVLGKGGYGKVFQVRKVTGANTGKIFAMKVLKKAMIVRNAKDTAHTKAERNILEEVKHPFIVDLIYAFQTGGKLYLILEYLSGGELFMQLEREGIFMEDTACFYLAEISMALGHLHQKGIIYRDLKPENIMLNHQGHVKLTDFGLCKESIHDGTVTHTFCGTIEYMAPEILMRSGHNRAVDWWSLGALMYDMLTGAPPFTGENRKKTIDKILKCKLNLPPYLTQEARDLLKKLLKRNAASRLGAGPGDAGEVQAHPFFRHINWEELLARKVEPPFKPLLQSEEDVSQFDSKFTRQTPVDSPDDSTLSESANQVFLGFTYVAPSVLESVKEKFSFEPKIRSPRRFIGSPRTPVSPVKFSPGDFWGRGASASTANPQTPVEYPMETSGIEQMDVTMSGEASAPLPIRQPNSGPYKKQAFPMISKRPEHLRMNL

inhibition at 20 µM (p70S6K) [%]	MST binding check, displacement assay (GSK-3β [1])	mechanism of inhibition with respect to substrate ULight-GS (GSK-3β [2])	mechanism of inhibition with respect to ATP (GSK-3β [2])	Tm increase upon binding (GSK-3β [3]) [°C]	Kd (GSK-3β [1]; complete binding curve, average of three experiments ± SD, read-out: affinity parameter (kd), MST) [µM]	SMILES
26	maintained their ability to bind GSK-3β	mixed competition mechanism	ATP competitive	3.2	–	CS(=O)(=O)N1CC(c2nc(N)ncc2-c2ccc(F)cc2)C1 [G5]
15	maintained their ability to bind GSK-3β	did not compete with the substrate	ATP competitive	2.5	66.5 ± 31.8	O=C(Nc1ccccn1)C1CCN(C(=O)CCc2ccccc2F)C1 (centres unmarked) [G12]
